Experimental data reported in ChEMBL document CHEMBL1150228, “Synthesis of a novel lysophosphatidylcholine” (J Nat Prod, 2001).

Target: T1, 3-hydroxy-3-methylglutaryl-coenzyme A reductase (Homo sapiens, UniProt P04035)
T1 sequence (P04035 whole entry): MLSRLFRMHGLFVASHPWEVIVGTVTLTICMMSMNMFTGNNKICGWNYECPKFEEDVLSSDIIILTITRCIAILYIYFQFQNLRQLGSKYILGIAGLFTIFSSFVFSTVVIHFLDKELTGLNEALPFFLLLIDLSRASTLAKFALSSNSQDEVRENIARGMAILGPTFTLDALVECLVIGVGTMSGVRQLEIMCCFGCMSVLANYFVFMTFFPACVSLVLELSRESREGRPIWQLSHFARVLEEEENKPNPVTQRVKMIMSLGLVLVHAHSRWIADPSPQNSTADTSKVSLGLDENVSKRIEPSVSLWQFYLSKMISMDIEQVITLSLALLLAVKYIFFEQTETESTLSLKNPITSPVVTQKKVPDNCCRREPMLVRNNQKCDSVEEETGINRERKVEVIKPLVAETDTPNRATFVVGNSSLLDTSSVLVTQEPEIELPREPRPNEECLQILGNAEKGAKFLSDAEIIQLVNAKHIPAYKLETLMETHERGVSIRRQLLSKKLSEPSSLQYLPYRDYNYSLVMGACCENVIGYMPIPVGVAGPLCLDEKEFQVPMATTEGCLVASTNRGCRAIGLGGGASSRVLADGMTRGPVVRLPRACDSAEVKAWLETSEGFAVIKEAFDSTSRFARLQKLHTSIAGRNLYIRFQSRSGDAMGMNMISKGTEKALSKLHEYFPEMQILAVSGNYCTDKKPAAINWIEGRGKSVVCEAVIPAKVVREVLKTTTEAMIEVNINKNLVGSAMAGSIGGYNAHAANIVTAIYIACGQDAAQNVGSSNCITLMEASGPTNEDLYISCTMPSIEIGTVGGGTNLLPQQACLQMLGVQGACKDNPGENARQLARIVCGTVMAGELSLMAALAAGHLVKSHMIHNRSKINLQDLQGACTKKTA
Test: Inhibition of HMG CoA reductase

Which IC50 does the source give for `CCCCCC[C@@H]1C[C@@H]1CCCCCCCCCC(=O)OCC(O)COP(=O)([O-])OCC[N+](C)(C)C` (relative stereo) [LYSOPHOSPHATIDYLCHOLINE] here?
The IC50 was 112 µM.
